Source: US10632054B2, “Method for hair frizz reduction” (The Procter & Gamble Company, priority 2015, dated 2020)

How the values were obtained:
[1] = Expert rating of hair switches for frizz, clean feel and greasy feel; details: 1% in leave-on composition
Experimental: Additional leave-on treatment compositions are prepared (Tables 1 and 2) according to the procedure described above, which are used to treat hair switches using the procedure described above (amount of 0.10 g of composition per g of hair). The switch is kept at high humidity (above 85%) for 2 hours. Then, ten experts are asked to rate each hair switch in terms of frizz, clean feel, and greasy feel, based on a 5 point scale, 5 being the highest and 1 being the lowest rating. Acceptable values are:
For frizz, less than 2 (lower number corresponds to less frizz);
For no greasy feel less than 3, (lower number corresponds to less greasy feel), and
For clean feel greater than 3 (higher number corresponds to cleaner feel).

[2] = Soaking treatment, moisture uptake by DVS; details: pH 4.2, 40 deg C., at 90% RH
Experimental: The Moisture Control Material is added into a 50:50 ethanol:water solvent at a concentration of 2% w/w and mixed until completely dissolved. The solution pH is adjusted with sodium hydroxide (50% w/w) to a final pH of 4.2. The soaking solution is kept at 40 deg C. for 2 hrs. until a uniform composition is obtained.
One hair switch of natural virgin brown hair is placed in 200 ml of this solution for 2 hours in an oven set at 40° C. After the 2-hour period, the hair is removed, air dried and then tested for moisture uptake using DVS. For the control experiment, a natural brown virgin hair switch of the same weight is placed in a 50:50 ethanol:water solvent and treated under identical conditions.
The % water reduction is calculated as follows: […]
Hair soaked in active solution of pH 4.2 for different interval of time from 10 min to 2 hrs at 40 deg C. Hair Switches were air dried and prepared for % water reduction measurement using DVS vs. control (no active).

[3] = Leave-on treatment, % water reduction by DVS in damaged hair; details: 10% propylene glycol
Experimental: An amount of 25-30 mg of hair with length of approximately 1 cm is weighed and hold for equilibration at 0% RH for 16 hours. After the 16-hour period, the RH is increased to 10% and maintained at this level for 6 hours. Then, the RH is increased by 10% after every 6 hours interval until it reaches 90% RH. The % water reduction is calculated as follows:
A=Amount of water absorbed by the hair treated with composition containing the Moisture Control Material

| Compound | Hair switch rating result in words (frizz, clean feel, greasy feel) [1] | other results |
| --- | --- | --- |
| O=C(OCCO)c1ccccc1O [2-Hydroxyethyl salicylate] | provide frizz protection with clean feel and without greasy feel negative |  |
| O=C(O)c1cc(Cl)ccc1O [5-Chlorosalicylic acid] | provide frizz protection with clean feel and without greasy feel negative | % water reduction vs. control ([2]; 10 min soaking): 9.6%; % water reduction vs. control ([2]; 20 mins soaking): 14.8%; % water reduction vs. control ([2]; 30 mins soaking): 19%; % water reduction vs. control ([2]; 1 hr soaking): 26%; % water reduction vs. control ([2]; 2 hr soaking): 30%; increase in % water reduction as measured by DVS versus without propylene glycol [3]: ~4 times |
| CC(C)CCCCCCCCCCCCCCCOC(=O)CCCCCCCCCCCCCCC(C)C [Isostearyl isostearate] | provide frizz protection with clean feel and without greasy feel negative |  |
| O=C(O)c1ccccc1O [Salicylic acid] | provide frizz protection with clean feel and without greasy feel negative |  |
| O=S(=O)(O)c1ccc(O)cc1 [4-Hydroxybenzenesulphonic acid] | provide frizz protection with clean feel and without greasy feel negative |  |
| CCCCCCCCC(CO)CCCCCC (stereo not shown) [2-Hexyl-1-decanol] | provide frizz protection with clean feel and without greasy feel negative |  |
| O=C(O)c1ccc(O)cc1O [2,4-Dihydroxybenzoic acid] | provide frizz protection with clean feel and without greasy feel negative |  |
